Experimental data as given in US20250092058A1 (priority 2018, published 2025).

Columns and labels:
HepG2 = format: cell-based, human; conditions: Table 13; MTT; HepG2 liver cancer
A549 = format: cell-based, human; conditions: Table 13; MTT; A549 lung cancer
FL118 MTD in SCID mice = format: in vivo
[1] = tested on: survivin, Mcl-1, XIAP, cIAP2; assay: Western blots of anti-/pro-apoptotic proteins in PANC1 and Mia2; format: cell-based, human; conditions: 16 h to 48 h, dose-dependent
Procedure: Western blotting/Immunoblotting. […] Fifty μg total protein from each sample were heated at 95° C. for 5 minutes after mixing with equal volume of 2×SDS loading buffer. Samples were separated on 12-15% SDS-polyacrylamide gel electrophoresis (SDS-PAGE) gels and electrotransferred to Pure Nitrocellulose Membranes (Bio-Rad, Hercules, CA). The membrane was then blocked in 5% skim milk in TBS-T buffer (20 mM Tris/HCl pH 7.5, 0.137 M NaCl, and 0.1% Tween 20) at room temperature for 2-3 hours. Next, the membrane was incubated with different primary antibodies in TBS-T containing 5% BSA overnight at 4° C. in the range of dilutions from 1:500 to 1:2000. After washing with TBS-T, the membrane was incubated in TBS-T buffer containing 5% skim milk and corresponding secondary antibody (1:5000) for 45-60 minutes at room temperature with shaking. Protein of interest was detected using Western Lightning Plus—ECL (Perkin Elmer, Waltham, MA) and visualized by various times (3-120 seconds) of exposure. Actin was detected as the internal control to normalize total protein loading for each sample.

PANC1 and Mia2 cells = assay: Western blots of caspase-3 activation and PARP cleavage; format: cell-based, human; conditions: 24 h, 10-500 nM
Procedure: Western blotting/Immunoblotting. […] Fifty μg total protein from each sample were heated at 95° C. for 5 minutes after mixing with equal volume of 2×SDS loading buffer. Samples were separated on 12-15% SDS-polyacrylamide gel electrophoresis (SDS-PAGE) gels and electrotransferred to Pure Nitrocellulose Membranes (Bio-Rad, Hercules, CA). […] Next, the membrane was incubated with different primary antibodies in TBS-T containing 5% BSA overnight at 4° C. in the range of dilutions from 1:500 to 1:2000. After washing with TBS-T, the membrane was incubated in TBS-T buffer containing 5% skim milk and corresponding secondary antibody (1:5000) for 45-60 minutes at room temperature with shaking. Protein of interest was detected using Western Lightning Plus—ECL (Perkin Elmer, Waltham, MA) and visualized by various times (3-120 seconds) of exposure. Actin was detected as the internal control to normalize total protein loading for each sample.
Next, we determined whether FL118-mediated inhibition of antiapoptotic proteins and induction of pro-apoptotic proteins shown in FIG. 1 would be accompanied by induction of apoptosis and cell killing.

PANC1-GFPcODC cells = assay: Trypan blue exclusion, PANC1-GFPcODC cells; format: cell-based, human; conditions: 4-day treatment; 20 μM cisplatin, 10 nM FL118, or both
Text: Generation of A2780-GFPcODC, A2780CP-GFPcODC and PANC1GFPcODC cells and fluorescence microscopy to detect stem-like and drug resistant green cells. The retroviral expression vector pQCXIN-ZsGreen-cODC (ornithine decarboxylase), containing a green fluorescence marker, was kindly provided by Dr. Frank Pajonk (Vlashi E, et al., In vivo imaging, tracking, and targeting of cancer stem cells. J Natl Cancer Inst. 2009; 101: 350-9). The retroviral particles collected from packaging cells that transfected with the above vector were infected into A2780, A2780CP and PANC1 cells, respectively. The transfected cell pool was used for experiments. […] Cell images were acquired digitally using the Olympus IX73 Inverted Score s (Olympus). Percentages of living cells were obtained from the average of the total cells counted from 10 microscopic fields.
Next, we applied the same system to generate pancreatic cancer PANC1-GFPcODC cells.

[2] = tested on: CD44 stem cell marker-positive PANC1 cells; assay: CD44-positive PANC1 colony formation; format: cell-based, human
Procedure: CD44 positive cell sorting and CD44-positive cell colony formation. CD44 positive (CD44+) cells were purified (sorted out) using fluorescence activated cell sorting (FACS). FITC-conjugated mouse anti-human CD44 was used in FACS purification of CD44+ PANC1 cells. Briefly, PANC1 cells were harvested by using 0.25% trypsin/0.02% EDTA. After re-suspension of the cells in cell-culture media, the cells were counted and washed in PBS with 2% FBS and collected by centrifugation. Add 10 μL FITC-CD44 antibody to 1 ml PBS containing 1 million cells and 2% of FBS for 30 minutes on ice. Following the antibody labeling, PANC1 cells were washed in PBS with 2% BSA before flow cytometric analysis was carried out on a BD FACSAria™ III cell sorter (BD Science, USA). […] Colonies were fixed, stained with crystal violet solution and images were taken before counting colonies on day 12. The experimental results were expressed as the mean±SD. The statistical significance of differences was determined by Student's t-test between two groups.
To further confirm these findings, we alternatively used the typical matrigel-based CSC sphere formation assay which is know to more closely mimic in vivo situations. In this assay only drug resistant stem-like cancer cells are able to form spheres. […] We performed colony formation of CD44 stem cell marker-positive cells using the stem-cell culture condition. […]

[3] = calculated from SCID mouse MTD
[4] = Stability of FL118 formulated suspension; conditions: no observable change in antitumor efficacy vs freshly prepared
[5] = BALB/cj mice, FL118 MTD 10 mg/kg oral qw×4
[6] = BALB/cj mouse serum, FL118 MTD 10 mg/kg oral qw×4

## CC[C@@]1(O)C(=O)OCc2c1cc1n(c2=O)Cc2cc3cc4c(cc3nc2-1)OCO4 [FL118, 10,11-methylenedioxy-camptothecin]
HepG2
  IC50: 68.5 ± 6.7 nM
A549
  IC50: 81.8 ± 14 nM
FL118 MTD in SCID mice; oral formulation, tumor-bearing SCID mice, qw×4
  maximum tolerated dose (MTD): 10 mg/kg
FL118 MTD in SCID mice; oral, q1d×5 and q2d×5
  MTD: ~1.5 mg/kg
FL118 MTD in SCID mice; two doses in SCID mice, estimated
  MTD: 12 mg/kg/dose
[1]
  expression of antiapoptotic proteins (XIAP, cIAP2, Mcl-1 or survivin): differentially modulates the expression of antiapoptotic proteins
PANC1 and Mia2 cells
  caspase-3 activation and PARP cleavage: strongly induces caspase-3 activation and PARP cleavage
PANC1-GFPcODC cells
  cell death: ~18%
[2]; 1 nM
  colony formation: significantly inhibited colony formation
[2]; 10 and 100 nM
  colony formation: completely eliminate colony formation
10 mg/kg oral qw×4
  tolerability: well tolerated
[5]
  BASO: 0 K/μL
  EOS: 0.01-0.1 K/μL
  HCT: 26.1-30.9%
  HGB: 8.9 to 10.8 g/dL
  LYM: 0.06-0.17 K/μL
  MCH: 14.8 to 15.3 pg
  MCHC: 33.7 to 36 g/dL
  MCV: 41.9 to 43.9 fL
  MONO: 0.03-0.12 K/μL
  MPV: 8.1 to 8.6 fL
  NEUT: 0.03-0.5 K/μL
  PDW: 13.8 to 14.4 fL
  PLT: 487-1004 K/μL
  RBC: 6.01-7.04 M/μL
  RDW-SD: 23 to 24.8 fL
  RET: 0.67-4.49 K/μL
  WBC: 0.33-0.6 K/μL
[6]
  ALB: 1.7 to 2.2 g/dL
  ALP: 52-105 U/L
  ALT: 33-58 U/L
  BUN: 16 to 19 mg/dL
  CHOL: 91 to 109 mg/dL
  CREA: ≤0.1 mg/dL
  Ca: 8.1 to 9.4 mg/dL
  GLU: 87 to 185 mg/dL
  PHOS: 10 to 13.3 mg/dL
  TBIL: ≤0.1 to 0.3 mg/dL
  TP: 3.4 to 4.1 g/dL
≥12.5 mg/kg oral qw×4
  body weight loss: > 20%
[3]
  calculated FL118 MTD for dogs: 2 mg/kg
[4]
  stability of formulated suspension for oral administration: more than 12 months
